# Reference: US4980283A, “Renin-inhibitory pepstatin phenyl derivatives” (Merck & Co., Inc., priority 1989, dated 1990)
# Square brackets hold non-standard residues; d marks the D form. Peptide text beside a SMILES is read from it. * marks the point of attachment. Sta = CC(C)C[C@H](N)[C@@H](O)CC(=O)O; Isovaleryl = CC(C)CC(=O)*
# Assays:
# [1] = system: renin enzyme prepared from hog kidney; assay: Renin assay (solid phase radioimmunoassay of angiotensin I); assay type: biochemical; settings: ratio of renin I50 to pepsin I50
# Experimental: The compound of Example 1 was evaluated against renin, employing a solid phase radioimmunossay adapted and modified from the assay of Ikedo et al., W. of Clinical Endocrinology and Metabolism, 54, 423-428, 1982), and pepsin assays as illustrated below:
# Ten μl of the test inhibitor/broth extract from Example 1 was mixed with 5 μl of 0.11M phenylmethylsulfonyl fluoride and 0.25 ml of 0.1M potassium phosphate buffer, pH 7.0, containing 0.05% sodium azide and one mg/ml of bovine serum albumin. Twenty μl of 2 μg renin enzyme prepared from hog kidney was added and the mixture was incubated at 37° C. for 20 minutes. The enzyme reaction was initiated by adding 20 μl of substrate solution which was prepared by dissolving 4 mg of angiotensinogen in 4 ml of 0.1M potassium phosphate buffer, pH 7.0, containing 0.05% sodium azide and 1 mg/ml of BSA.
# After 20 minutes' incubation at 37° C., the enzyme reaction was stopped by the addition of 100 μl of ^125 I-angiotensin I tracer-pepstatin. […] Two ml of water was then added to each tube and the solution was aspirated, with the tube with the ball being counted in a γ-counter.
# The activity of the test compound was calculated based on the standard curve of known amount of angiotensin I.
# hog renin = settings: after the injection of hog renin into nephrectomized rats; cited from earlier work
structure (smiles),measurement,setting,value
CC(C)CC(=O)N[C@H](C(=O)N[C@H](C(=O)N[C@@H](CC(C)C)[C@@H](O)CC(=O)N[C@@H](C)C(=O)N[C@@H](CC(C)C)[C@@H](O)CC(=O)O)C(C)C)C(C)C [Pepstatin A] (Isovaleryl-VV[Sta]A[Sta]-OH),I50 ratio of renin/pepsin,[1],1160
same,blood pressure in vivo,hog renin,reduces blood pressure
